In PubChem BioAssay (NCI):
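Each compound was tested at five concentrations against cells in 96-well plates for 48 hours. GI50 is the concentration that inhibits growth by half. TGI denotes the concentration required for complete inhibition of growth.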

Key:
Assay in all cases: growth of human tumour cells (NCI), 48 h
[1] = tested on: OVCAR-8 ovarian
[2] = tested on: SR leukemia
[3] = tested on: HCT-15 colon
[4] = tested on: ACHN renal
[5] = tested on: A549 NSCLC
[6] = tested on: K-562 leukemia
[7] = tested on: U251 CNS
[8] = tested on: NCI-H23 lung
[9] = tested on: A498 renal
[10] = tested on: SF-539 CNS
[11] = tested on: SK-OV-3 ovarian
[12] = tested on: MDA-MB-435
[13] = tested on: M14 melanoma
[14] = tested on: NCI/ADR-RES ovarian
[15] = tested on: TK-10 renal
[16] = tested on: OVCAR-5 ovarian
[17] = tested on: UACC-62 melanoma
[18] = tested on: COLO 205 colon
[19] = tested on: HL-60(TB) leukemia
[20] = tested on: KM12 colon
[21] = tested on: SF-295 CNS
[22] = tested on: T-47D breast
[23] = tested on: HCC-2998 colon
[24] = tested on: SK-MEL-28 melanoma
[25] = tested on: SK-MEL-2 melanoma
[26] = tested on: OVCAR-4 ovarian
[27] = tested on: SK-MEL-5 melanoma
[28] = tested on: RPMI-8226 leukemia
[29] = tested on: 786-0 renal
[30] = tested on: SN12C renal
[31] = tested on: HT29 colon
[32] = tested on: IGROV1 ovarian
[33] = tested on: DU-145 prostate
[34] = tested on: UO-31 renal
[35] = tested on: LOX IMVI melanoma
[36] = tested on: SNB-75 CNS
[37] = tested on: NCI-H460 lung
[38] = tested on: CCRF-CEM leukemia
[39] = tested on: NCI-H522 lung
[40] = tested on: SNB-19 CNS
[41] = tested on: HOP-92 NSCLC
[42] = tested on: BT-549 breast
[43] = tested on: PC-3 prostate
[44] = tested on: HOP-62 NSCLC
[45] = tested on: MDA-MB-231 breast
[46] = tested on: NCI-H226 lung
[47] = tested on: OVCAR-3 ovarian
[48] = tested on: EKVX NSCLC
[49] = tested on: MALME-3M melanoma
[50] = tested on: SF-268 CNS
[51] = tested on: MDA-MB-468 breast
[52] = tested on: HCT-116 colon
[53] = tested on: CAKI-1 renal
[54] = tested on: UACC-257 melanoma
[55] = tested on: RXF 393 renal
[56] = tested on: SW-620 colon

NS(=O)(=O)c1ccc(N=Nc2c(O)n(CC(=O)Nc3ccccc3)c3ccccc23)cc1
GI50 [1]: 646 nM | TGI [1]: 3160 nM | GI50 [2]: 194 nM | TGI [2]: > 100000 nM | GI50 [3]: 533 nM | TGI [3]: > 100000 nM | GI50 [4]: 606 nM | TGI [4]: 4530 nM | GI50 [5]: 738 nM | TGI [5]: 4180 nM | GI50 [6]: 895 nM | TGI [6]: > 100000 nM | GI50 [7]: 1170 nM | TGI [7]: 3880 nM | GI50 [8]: 801 nM | TGI [8]: 3460 nM | GI50 [9]: 1290 nM | TGI [9]: 5390 nM | GI50 [10]: 538 nM | TGI [10]: 2030 nM | GI50 [11]: 3110 nM | TGI [11]: 10200 nM | GI50 [12]: 635 nM | TGI [12]: 6100 nM | GI50 [13]: 1140 nM | TGI [13]: > 100000 nM | GI50 [14]: > 100000 nM | TGI [14]: > 100000 nM | GI50 [15]: 2640 nM | TGI [15]: 25800 nM | GI50 [16]: 3520 nM | TGI [16]: 26100 nM | GI50 [17]: 520 nM | TGI [17]: 2810 nM | GI50 [18]: 1240 nM | TGI [18]: 6740 nM | GI50 [19]: 443 nM | TGI [19]: > 100000 nM | GI50 [20]: 1030 nM | TGI [20]: 22500 nM | GI50 [21]: 1230 nM | TGI [21]: 5160 nM | GI50 [22]: 1890 nM | TGI [22]: 21400 nM | GI50 [23]: 2200 nM | TGI [23]: 8560 nM | GI50 [24]: 932 nM | TGI [24]: 6060 nM | GI50 [25]: 2250 nM | TGI [25]: 6900 nM | GI50 [26]: 930 nM | TGI [26]: 69700 nM | GI50 [27]: 1000 nM | TGI [27]: 5500 nM | GI50 [28]: 1130 nM | TGI [28]: > 100000 nM | GI50 [29]: 1290 nM | TGI [29]: 6540 nM | GI50 [30]: 1140 nM | TGI [30]: 6050 nM | GI50 [31]: 749 nM | TGI [31]: 2820 nM | GI50 [32]: 2790 nM | TGI [32]: 14500 nM | GI50 [33]: 794 nM | TGI [33]: 48300 nM | GI50 [34]: 895 nM | TGI [34]: 6950 nM | GI50 [35]: 725 nM | TGI [35]: 11300 nM | GI50 [36]: 1940 nM | TGI [36]: 8220 nM | GI50 [37]: 544 nM | TGI [37]: 3070 nM | GI50 [38]: 776 nM | TGI [38]: > 100000 nM | GI50 [39]: 589 nM | TGI [39]: 3800 nM | GI50 [40]: 1670 nM | TGI [40]: 15100 nM | GI50 [41]: 1600 nM | TGI [41]: 6560 nM | GI50 [42]: 2030 nM | TGI [42]: 7730 nM | GI50 [43]: 1610 nM | TGI [43]: 10900 nM | GI50 [44]: 1800 nM | TGI [44]: 5500 nM | GI50 [45]: 1400 nM | TGI [45]: 3920 nM | GI50 [46]: 1400 nM | TGI [46]: 4750 nM | GI50 [47]: 873 nM | TGI [47]: 16000 nM | GI50 [48]: 3350 nM | TGI [48]: 39300 nM | GI50 [49]: 1090 nM | TGI [49]: 5150 nM | GI50 [50]: 3590 nM | TGI [50]: > 100000 nM | GI50 [51]: 768 nM | TGI [51]: 4650 nM | GI50 [52]: 460 nM | TGI [52]: 2580 nM | GI50 [53]: 434 nM | TGI [53]: 2360 nM | GI50 [54]: 2020 nM | TGI [54]: 20300 nM | GI50 [55]: 1360 nM | TGI [55]: 5060 nM | GI50 [56]: 402 nM | TGI [56]: 2260 nM
